Experimental data taken from the supplement of paper PMC13380429.
± gives the standard deviation of the averaged measurements.

Legend:
Conditions in all cases: 72 h
Caco-2 [1] = experiment: relative viability EC50 (midpoint between 100% and the lowest measured viability); higher = less toxic
Calu-3 [2] = experiment: as above
HepG2 [3] = experiment: as above
U2OS [4] = experiment: as above
Vero E6 [5] = experiment: as above
Caco-2 [6] = experiment: cell viability relative to DMSO; higher = less toxic
Calu-3 [7] = experiment: as above
HepG2 [8] = experiment: as above
U2OS [9] = experiment: as above
Vero E6 [10] = experiment: as above
Caco-2 [11] = experiment: drug sensitivity score (DSS) for viability; higher = more toxic; extreme values may be limits of the assay
Calu-3 [12] = experiment: as above
HepG2 [13] = experiment: as above
U2OS [14] = experiment: as above
Vero E6 [15] = experiment: as above

Row | SMILES | relative viability EC50 (Caco-2 [1]) | relative viability EC50 (Calu-3 [2]) | relative viability EC50 (HepG2 [3]) | relative viability EC50 (U2OS [4]) | relative viability EC50 (Vero E6 [5]) | cell viability (Caco-2 [6]; 1 nM) | cell viability (Caco-2 [6]; 10 nM) | cell viability (Caco-2 [6]; 100 nM) | cell viability (Caco-2 [6]; 1000 nM) | cell viability (Caco-2 [6]; 10000 nM) | cell viability (Calu-3 [7]; 1 nM) | cell viability (Calu-3 [7]; 10 nM) | cell viability (Calu-3 [7]; 100 nM) | cell viability (Calu-3 [7]; 1000 nM) | cell viability (Calu-3 [7]; 10000 nM) | cell viability (HepG2 [8]; 1 nM) | cell viability (HepG2 [8]; 10 nM) | cell viability (HepG2 [8]; 100 nM) | cell viability (HepG2 [8]; 1000 nM) | cell viability (HepG2 [8]; 10000 nM) | cell viability (U2OS [9]; 1 nM) | cell viability (U2OS [9]; 10 nM) | cell viability (U2OS [9]; 100 nM) | cell viability (U2OS [9]; 1000 nM) | cell viability (U2OS [9]; 10000 nM) | cell viability (Vero E6 [10]; 1 nM) | cell viability (Vero E6 [10]; 10 nM) | cell viability (Vero E6 [10]; 100 nM) | cell viability (Vero E6 [10]; 1000 nM) | cell viability (Vero E6 [10]; 10000 nM) | drug sensitivity score (Caco-2 [11]) | drug sensitivity score (Calu-3 [12]) | drug sensitivity score (HepG2 [13]) | drug sensitivity score (U2OS [14]) | drug sensitivity score (Vero E6 [15])
1 | O=C(Nc1cc(C(F)(F)F)ccc1O)Nc1cc(C(F)(F)F)ccc1O [NS-1643] | > 10 µM | > 10 µM | > 10 µM | > 10 µM | > 10 µM | 108% | 101% | 102% | 95% | 88.3% | 102% | 94.7% | 103% | 97.4% | 104% | 95.3% | 105% | 110% | 94.7% | 92.5% | 99.3% | 100% | 104% | 102% | 96.9% | 98.8% | 103% | 100% | 99.1% | 95.1% | 0.2 | 0 | 0 | 0 | 0
2 | O=C(Nc1cccc(C(F)(F)F)c1)Nc1ccc(Br)cc1-c1nnn[nH]1 [NS-3623] | > 10 µM | > 10 µM | > 10 µM | > 10 µM | > 10 µM | 98% | 99.8% | 100% | 97.8% | 101% | 107% | 92.8% | 95.3% | 102% | 100% | 102% | 102% | 92.5% | 98.7% | 112% | 99.6% | 97.8% | 97.6% | 99.2% | 96.2% | 93.3% | 101% | 92.4% | 94.6% | 110% | 0 | 0 | 0 | 0 | 0
3 | CCNC(=O)c1noc(-c2cc(C(C)C)c(O)cc2O)c1-c1ccc(CN2CCOCC2)cc1 [NVP-AUY922] | 0.0149 µM | 0.0281 µM | 0.0067 µM | 0.012 µM | 0.0702 µM | 100% | 77.1% | 30.3% | 28.2% | 31.4% | 84.2% | 83.9% | 46% | 37.3% | 29.6% | 103% | 27.5% | 1.2% | 0.8% | 1.2% | 93% | 57.9% | 3% | 3.5% | 1% | 104% | 106% | 47.1% | 26.6% | 25.6% | 25.1 | 20.5 | 38.6 | 34.8 | 19.8
4 | Cn1c(=O)n(-c2ccc(C(C)(C)C#N)cc2)c2c3cc(-c4cnc5ccccc5c4)ccc3ncc21 [NVP-BEZ235] | 0.156 µM | 0.209 µM | 1.19 µM | 0.585 µM | 0.552 µM | 98.6% | 102% | 85.2% | 40.1% | 40.3% | 95.4% | 98.5% | 77.2% | 40.6% | 28.7% | 99.7% | 110% | 98.4% | 71.8% | 30.1% | 101% | 99.9% | 98.9% | 37.9% | 20.7% | 98.4% | 102% | 93.9% | 57.5% | 38.1% | 13.4 | 13.7 | 7.5 | 11.7 | 8.8
5 | O=[N+]([O-])c1cc(O)c(O)c([N+](=O)[O-])c1 [OR-486] | > 10 µM | > 10 µM | > 10 µM | > 10 µM | > 10 µM | 93.2% | 103% | 103% | 97% | 94.3% | 102% | 100% | 95.2% | 94% | 99.5% | 101% | 98.3% | 98.3% | 93.6% | 96.7% | 98.2% | 102% | 96.5% | 103% | 98% | 97.6% | 99% | 102% | 100% | 97% | 0 | 0 | 0 | 0 | 0
6 | CCCCn1c(=O)c2[nH]c(C34CC5CC(CC3C5)C4)nc2n(CCCO)c1=O [PSB-36] | > 10 µM | > 10 µM | > 10 µM | > 10 µM | > 10 µM | 96.5% | 102% | 98% | 101% | 91.9% | 99% | 93.4% | 98.7% | 91% | 80.4% | 105% | 95.4% | 103% | 99.3% | 97.3% | 98.5% | 98.9% | 88.6% | 89.1% | 86% | 99.3% | 93.5% | 98.1% | 84.9% | 100% | 0 | 1.1 | 0 | 1.7 | 0
7 | COc1cc2nc(N3CCN(C(=O)COc4c(OC)cccc4C(C)C)CC3)nc(N)c2cc1OC [Rec-15/2615] | > 10 µM | > 10 µM | > 10 µM | > 10 µM | > 10 µM | 84.3% | 102% | 101% | 90.1% | 84.4% | 98.7% | 102% | 97.3% | 95.4% | 84.8% | 91.2% | 92.1% | 103% | 92% | 83.7% | 96.4% | 97.9% | 94.3% | 95.9% | 84.2% | 98.8% | 99.3% | 99.4% | 99.6% | 95.5% | 1 | 0.4 | 1 | 0.1 | 0
8 | N[C@@H](Cc1cc(CP(=O)(O)O)cc(-c2ccccc2Cl)c1)C(=O)O [SDZ-220-581] | > 10 µM | > 10 µM | > 10 µM | > 10 µM | > 10 µM | 102% | 91.5% | 91% | 101% | 111% | 107% | 92.8% | 101% | 98.6% | 114% | 96% | 99.6% | 92.6% | 101% | 104% | 99.8% | 99.3% | 96.8% | 106% | 105% | 95.8% | 102% | 92.7% | 95.9% | 107% | 0 | 0 | 0 | 0 | 0
9 | CN(C)c1cccc(Oc2cnc(Nc3cccc(O)c3)nc2)c1 [SEN-1269] | > 10 µM | > 10 µM | > 10 µM | > 10 µM | > 10 µM | 96.5% | 102% | 102% | 96.3% | 82.3% | 94.5% | 99.7% | 100% | 95.4% | 102% | 102% | 104% | 93.8% | 93% | 99.9% | 101% | 102% | 95.5% | 99.5% | 94.8% | 98% | 94.4% | 95.9% | 89.2% | 93.4% | 0.9 | 0 | 0 | 0 | 0
10 | FC(F)(F)c1cccc(-c2noc(-c3cc(-c4ccccc4)c(C(F)(F)F)s3)n2)c1 [SEW-2871] | > 10 µM | > 10 µM | > 10 µM | > 10 µM | > 10 µM | 103% | 104% | 102% | 99.8% | 108% | 93.2% | 91.1% | 99.9% | 93.3% | 98.5% | 102% | 103% | 93.9% | 100% | 99% | 93.7% | 99.1% | 96% | 102% | 102% | 101% | 98% | 97.4% | 90.7% | 110% | 0 | 0 | 0 | 0 | 0
11 | Cn1cc(-c2ccc3nnc(Sc4ccc5ncccc5c4)n3n2)cn1 [SGX523] | > 10 µM | > 10 µM | > 10 µM | > 10 µM | > 10 µM | 92.5% | 98.6% | 103% | 107% | 100% | 89% | 97.2% | 102% | 96.5% | 100% | 96.2% | 95.2% | 92.5% | 97.2% | 103% | 99% | 98.6% | 101% | 93.4% | 103% | 94.8% | 101% | 94.4% | 98% | 107% | 0 | 0 | 0 | 0 | 0
12 | CCCNC(=O)N1N=C(c2ccc(N)cc2)c2cc3c(cc2C1C)OCO3 (stereo not given) [SYM-2206] | > 10 µM | > 10 µM | > 10 µM | > 10 µM | > 10 µM | 96.6% | 102% | 95.5% | 94.2% | 100% | 86.9% | 101% | 109% | 111% | 119% | 91.9% | 94.8% | 95.2% | 93% | 93.5% | 95.1% | 101% | 97.4% | 103% | 101% | 98.5% | 92.5% | 97.9% | 88.9% | 98.6% | 0 | 0 | 0 | 0 | 0
13 | CN[C@@H]1[C@@H](O)[C@@H](O[C@@H]2[C@@H](O)[C@H](O[C@H]3OC(CN)=CC[C@H]3N)[C@@H](N)C[C@H]2N)OC[C@]1(C)O [Sisomicin (sulfate)] | > 10 µM | > 10 µM | > 10 µM | > 10 µM | > 10 µM | 100 ± 6.2% | 100 ± 4.2% | 103 ± 2.8% | 100 ± 0.78% | 94.15 ± 0.49% | 105 ± 7.6% | 101.8 ± 0.35% | 97.1 ± 0.28% | 101 ± 4.5% | 105 ± 5.2% | 108 ± 8.4% | 101 ± 4.7% | 107 ± 7.3% | 96.8 ± 1.3% | 98.1 ± 4.1% | 101 ± 0.64% | 102 ± 0.49% | 99.7 ± 0.99% | 105 ± 3.1% | 99.4 ± 0.71% | 107 ± 8.3% | 107 ± 1.6% | 105 ± 4.5% | 98.5 ± 1.6% | 104 ± 2.9% | 0 | 0 | 0 | 0 | 0
14 | CN(C)C/C=C/C(=O)Nc1cccc(C(=O)Nc2cccc(Nc3ncc(Cl)c(-c4c[nH]c5ccccc45)n3)c2)c1 [THZ2] | 1.53 µM | 0.154 µM | 0.0771 µM | 0.303 µM | 2.75 µM | 97.8% | 99.9% | 98.4% | 80.9% | 25.6% | 103% | 104% | 83.1% | 33.5% | 42.9% | 114% | 89.4% | 44.7% | 3.5% | 2.7% | 97.8% | 102% | 96.6% | 10.2% | 8.3% | 104% | 103% | 103% | 95% | 6.5% | 7.1 | 14.9 | 24.2 | 16.8 | 5.9
